Measurements published in PubChem BioAssay (NCI).
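Dose response: 5 concentrations. Exposure: 48 h. Format: 96-well plates. Endpoint: linear interpolation; highest concentration if not reached. GI50 = concentration required for 50% inhibition of growth. Definition used: TGI = concentration required for complete inhibition of growth.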

How the values were obtained:
Test in all cases: inhibition of tumour cell growth, NCI panel, 48 h
HOP-92 NSCLC = tested on: HOP-92 NSCLC
HS 578T breast = tested on: HS 578T breast
SF-268 CNS = tested on: SF-268 CNS
CAKI-1 renal = tested on: CAKI-1 renal
OVCAR-3 ovarian = tested on: OVCAR-3 ovarian
MOLT-4 leukemia = tested on: MOLT-4 leukemia
BT-549 breast = tested on: BT-549 breast
OVCAR-8 ovarian = tested on: OVCAR-8 ovarian
MDA-MB-231 breast = tested on: MDA-MB-231 breast
MALME-3M melanoma = tested on: MALME-3M melanoma
HCT-15 colon = tested on: HCT-15 colon
SR leukemia = tested on: SR leukemia
NCI-H460 lung = tested on: NCI-H460 lung
SK-MEL-5 melanoma = tested on: SK-MEL-5 melanoma
MDA-MB-435 = tested on: MDA-MB-435
SW-620 colon = tested on: SW-620 colon
NCI-H522 lung = tested on: NCI-H522 lung
A549 NSCLC = tested on: A549 NSCLC
SNB-19 CNS = tested on: SNB-19 CNS
OVCAR-4 ovarian = tested on: OVCAR-4 ovarian
TK-10 renal = tested on: TK-10 renal
SF-539 CNS = tested on: SF-539 CNS
DU-145 prostate = tested on: DU-145 prostate
T-47D breast = tested on: T-47D breast
UACC-62 melanoma = tested on: UACC-62 melanoma
U251 CNS = tested on: U251 CNS
RXF 393 renal = tested on: RXF 393 renal
HCT-116 colon = tested on: HCT-116 colon
HL-60(TB) leukemia = tested on: HL-60(TB) leukemia
IGROV1 ovarian = tested on: IGROV1 ovarian
NCI/ADR-RES ovarian = tested on: NCI/ADR-RES ovarian
EKVX NSCLC = tested on: EKVX NSCLC
CCRF-CEM leukemia = tested on: CCRF-CEM leukemia
SN12C renal = tested on: SN12C renal
786-0 renal = tested on: 786-0 renal
RPMI-8226 leukemia = tested on: RPMI-8226 leukemia
SF-295 CNS = tested on: SF-295 CNS
K-562 leukemia = tested on: K-562 leukemia
LOX IMVI melanoma = tested on: LOX IMVI melanoma
ACHN renal = tested on: ACHN renal
KM12 colon = tested on: KM12 colon
SNB-75 CNS = tested on: SNB-75 CNS
HCC-2998 colon = tested on: HCC-2998 colon
UACC-257 melanoma = tested on: UACC-257 melanoma
PC-3 prostate = tested on: PC-3 prostate
A498 renal = tested on: A498 renal
HT29 colon = tested on: HT29 colon
MCF7 breast = tested on: MCF7 breast
M14 melanoma = tested on: M14 melanoma
SK-MEL-28 melanoma = tested on: SK-MEL-28 melanoma
COLO 205 colon = tested on: COLO 205 colon
SK-OV-3 ovarian = tested on: SK-OV-3 ovarian
NCI-H226 lung = tested on: NCI-H226 lung
UO-31 renal = tested on: UO-31 renal
OVCAR-5 ovarian = tested on: OVCAR-5 ovarian
SK-MEL-2 melanoma = tested on: SK-MEL-2 melanoma
HOP-62 NSCLC = tested on: HOP-62 NSCLC

For `C/C(=C(/c1ccc(O)cc1)c1ccc(OCCN2CCCCCC2)cc1)c1ccccc1`, the GI50 (HOP-92 NSCLC) was 61.8 µM, the TGI (HOP-92 NSCLC) was over 100 µM and the GI50 (HS 578T breast) was 60.7 µM. For the same compound, the TGI (HS 578T breast) was over 100 µM, the GI50 (SF-268 CNS) was over 100 µM and the TGI (SF-268 CNS) was over 100 µM. The GI50 (CAKI-1 renal) was 65.9 µM, the TGI (CAKI-1 renal) was over 100 µM and the GI50 (OVCAR-3 ovarian) was over 100 µM. It also gave a TGI (OVCAR-3 ovarian) of over 100 µM, a GI50 (MOLT-4 leukemia) of 32.6 µM and a TGI (MOLT-4 leukemia) of over 100 µM. For the same compound, the GI50 (BT-549 breast) was over 100 µM, the TGI (BT-549 breast) was over 100 µM and the GI50 (OVCAR-8 ovarian) was over 100 µM. It also gave a TGI (OVCAR-8 ovarian) of over 100 µM, a GI50 (MDA-MB-231 breast) of over 100 µM and a TGI (MDA-MB-231 breast) of over 100 µM. It also gave a GI50 (MALME-3M melanoma) of 40.9 µM, a TGI (MALME-3M melanoma) of over 100 µM and a GI50 (HCT-15 colon) of 23.8 µM. The TGI (HCT-15 colon) was 69.9 µM, the GI50 (SR leukemia) was 22 µM and the TGI (SR leukemia) was 69.6 µM. For the same compound, the GI50 (NCI-H460 lung) was 38.2 µM, the TGI (NCI-H460 lung) was over 100 µM and the GI50 (SK-MEL-5 melanoma) was 66.1 µM. For the same compound, the TGI (SK-MEL-5 melanoma) was over 100 µM, the GI50 (MDA-MB-435) was over 100 µM and the TGI (MDA-MB-435) was over 100 µM. For the same compound, the GI50 (SW-620 colon) was 25.5 µM, the TGI (SW-620 colon) was 75.5 µM and the GI50 (NCI-H522 lung) was over 100 µM. For the same compound, the TGI (NCI-H522 lung) was over 100 µM, the GI50 (A549 NSCLC) was over 100 µM and the TGI (A549 NSCLC) was over 100 µM. For the same compound, the GI50 (SNB-19 CNS) was over 100 µM, the TGI (SNB-19 CNS) was over 100 µM and the GI50 (OVCAR-4 ovarian) was over 100 µM. The TGI (OVCAR-4 ovarian) was over 100 µM, the GI50 (TK-10 renal) was over 100 µM and the TGI (TK-10 renal) was over 100 µM. For the same compound, the GI50 (SF-539 CNS) was 61.3 µM, the TGI (SF-539 CNS) was over 100 µM and the GI50 (DU-145 prostate) was over 100 µM. The TGI (DU-145 prostate) was over 100 µM, the GI50 (T-47D breast) was 11.5 µM and the TGI (T-47D breast) was over 100 µM. It also gave a GI50 (UACC-62 melanoma) of over 100 µM, a TGI (UACC-62 melanoma) of over 100 µM and a GI50 (U251 CNS) of 69.9 µM. The TGI (U251 CNS) was over 100 µM, the GI50 (RXF 393 renal) was 31.2 µM and the TGI (RXF 393 renal) was over 100 µM. It also gave a GI50 (HCT-116 colon) of 34.1 µM, a TGI (HCT-116 colon) of over 100 µM and a GI50 (HL-60(TB) leukemia) of 26.5 µM. The TGI (HL-60(TB) leukemia) was over 100 µM, the GI50 (IGROV1 ovarian) was over 100 µM and the TGI (IGROV1 ovarian) was over 100 µM. For the same compound, the GI50 (NCI/ADR-RES ovarian) was over 100 µM, the TGI (NCI/ADR-RES ovarian) was over 100 µM and the GI50 (EKVX NSCLC) was over 100 µM. It also gave a TGI (EKVX NSCLC) of over 100 µM, a GI50 (CCRF-CEM leukemia) of 76.2 µM and a TGI (CCRF-CEM leukemia) of over 100 µM. It also gave a GI50 (SN12C renal) of over 100 µM, a TGI (SN12C renal) of over 100 µM and a GI50 (786-0 renal) of 27.1 µM. The TGI (786-0 renal) was over 100 µM, the GI50 (RPMI-8226 leukemia) was 30.5 µM and the TGI (RPMI-8226 leukemia) was over 100 µM. It also gave a GI50 (SF-295 CNS) of 93.3 µM, a TGI (SF-295 CNS) of over 100 µM and a GI50 (K-562 leukemia) of 22.7 µM. The TGI (K-562 leukemia) was over 100 µM, the GI50 (LOX IMVI melanoma) was 19.5 µM and the TGI (LOX IMVI melanoma) was 41.5 µM. The GI50 (ACHN renal) was over 100 µM, the TGI (ACHN renal) was over 100 µM and the GI50 (KM12 colon) was 83.8 µM. The TGI (KM12 colon) was over 100 µM, the GI50 (SNB-75 CNS) was over 100 µM and the TGI (SNB-75 CNS) was over 100 µM. It also gave a GI50 (HCC-2998 colon) of 34.1 µM, a TGI (HCC-2998 colon) of over 100 µM and a GI50 (UACC-257 melanoma) of 48.2 µM. The TGI (UACC-257 melanoma) was over 100 µM, the GI50 (PC-3 prostate) was 57.9 µM and the TGI (PC-3 prostate) was over 100 µM. The GI50 (A498 renal) was over 100 µM, the TGI (A498 renal) was over 100 µM and the GI50 (HT29 colon) was 27.7 µM. The TGI (HT29 colon) was over 100 µM, the GI50 (MCF7 breast) was 0.0615 µM and the TGI (MCF7 breast) was over 100 µM. The GI50 (M14 melanoma) was 35.5 µM, the TGI (M14 melanoma) was over 100 µM and the GI50 (SK-MEL-28 melanoma) was 42.9 µM. The TGI (SK-MEL-28 melanoma) was over 100 µM, the GI50 (COLO 205 colon) was 17.9 µM and the TGI (COLO 205 colon) was 34.4 µM. The GI50 (SK-OV-3 ovarian) was over 100 µM, the TGI (SK-OV-3 ovarian) was over 100 µM and the GI50 (NCI-H226 lung) was over 100 µM. It also gave a TGI (NCI-H226 lung) of over 100 µM, a GI50 (UO-31 renal) of 57.5 µM and a TGI (UO-31 renal) of over 100 µM. The GI50 (OVCAR-5 ovarian) was over 100 µM, the TGI (OVCAR-5 ovarian) was over 100 µM and the GI50 (SK-MEL-2 melanoma) was over 100 µM. For the same compound, the TGI (SK-MEL-2 melanoma) was over 100 µM, the GI50 (HOP-62 NSCLC) was over 100 µM and the TGI (HOP-62 NSCLC) was over 100 µM.
